The subject of this assay is ischemic ulcers. Put plainly: Case report: ischemic ulcers (peripheral vascular disease). It is filed as in vivo, human. Particulars: person, prior therapy before topical treatment. From the text:
A person presents with chronic peripheral vascular disease and ischemic ulcers over the medial aspect of the hallux.

`CC(=O)CCCCn1c(=O)c2c(ncn2C)n(C)c1=O` [Trental]: the healing entry was “failed to improve healing”.

These data come from US10881640B2, “Topical pharmaceutical compositions for treatment of pilonidal sinus wounds” (S.L.A. PHARMA AG, priority 2002, dated 2021).
